{"source": "patent US20210260201A1", "about": "“EXTRACELLULAR VESICLES FOR THE TREATMENT AND PREVENTION OF INFECTIONS AND OTHER DISEASES” (PHYSIS BIOTECHNOLOGIES, LLC, priority 2020, published 2021)", "origin": "cited, not measured here", "note": "Where two headings read alike, the source gives them in different places.", "data": [{"compound": "C=C(C)[C@@H]1CCC(C)=C[C@H]1c1c(O)cc(CCCCC)cc1O", "note": "[CBD, cannabidiol]", "values": [{"measurement": "bioavailability", "setting": "intranasal", "value": "34-46%"}, {"measurement": "bioavailability", "setting": "oral (edibles)", "value": "6-20%"}, {"measurement": "bioavailability", "setting": "sublingual (tinctures)", "value": "13-19%"}]}]}
